PMC8476755 (Frontiers in Chemistry, 2021)
Substitutions are numbered along the chain they refer to. Where two headings read alike, the source gives them in different places.

Columns and labels:
Experiment in all cases: [3H]GABA uptake assay, transient expression in tsA201 cells
Assay type in all cases: cell-based
BGT1 E52A + Q299L = target: T1, BGT1 E52A + Q299L (Homo sapiens, UniProt P48065, E52A/Q299L); details: for IC50: BGT1 E52A + Q299L, tsA201 cells (2: only n = 2)
T1 construct: expressed in transfected cells; host or cells: tsA201 (transformed HEK293), transient
T1 sequence (P48065 1-614 E52A/Q299L): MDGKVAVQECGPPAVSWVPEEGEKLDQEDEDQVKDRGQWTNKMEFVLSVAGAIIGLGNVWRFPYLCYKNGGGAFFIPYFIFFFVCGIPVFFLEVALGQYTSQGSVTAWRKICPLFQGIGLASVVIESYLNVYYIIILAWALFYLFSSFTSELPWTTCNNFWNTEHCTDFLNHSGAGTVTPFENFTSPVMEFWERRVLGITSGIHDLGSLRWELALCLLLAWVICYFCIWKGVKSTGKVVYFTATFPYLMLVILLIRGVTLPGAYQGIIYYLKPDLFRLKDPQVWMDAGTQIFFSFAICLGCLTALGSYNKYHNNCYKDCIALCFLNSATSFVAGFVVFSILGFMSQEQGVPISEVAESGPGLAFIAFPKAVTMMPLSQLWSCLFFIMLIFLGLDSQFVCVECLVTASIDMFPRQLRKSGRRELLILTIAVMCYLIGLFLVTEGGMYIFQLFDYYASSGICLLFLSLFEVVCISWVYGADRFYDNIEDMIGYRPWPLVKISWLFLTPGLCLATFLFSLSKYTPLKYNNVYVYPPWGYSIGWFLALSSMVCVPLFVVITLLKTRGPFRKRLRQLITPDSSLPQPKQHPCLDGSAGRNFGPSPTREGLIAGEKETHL
Method: (§1) The residue Q299 in human BGT1 corresponds to leucine in all other GATs (human, rat, mouse), while E52 corresponds to tyrosine in GAT1 (human, rat, mouse) but is conserved among GAT2, GAT3 and BGT1 (human, rat, mouse) (Figure 6A) ([Kickinger et al., 2019]).
(§2) The tsA201 cell line (a transformed HEK293 cell line), the Flp-In CHO cell lines stably expressing human (h) GATs and the HEK293 cell line stably expressing human α1β2γ2 GABAA receptors have been described previously and were cultured accordingly ([Al-Khawaja et al., 2014]; [Falk-Petersen et al., 2020]). The tsA201 cell line used for transient expression of hGATs was transfected with DNA constructs (8 μg per 10 cm plate) using 40 μL PolyFect transfection reagent according to the manufacturer’s protocol (Qiagen).
(§3) Briefly, cells were seeded in white 96-well plates (White Opaque Tissue Culture (TC) plated 96-well Microplate) pre-coated with PDL. Medium was removed on the following day and cells washed with 100 µL/well assay buffer (HBSS supplemented with 20 mM HEPES, 1 mM CaCl2 and 1 mM MgCl2, pH 7.4). […] The cells were washed 3 times with 100 µL/well ice-cold assay buffer, 150 µL/well MicroScint™20 was subsequently added before the plate was shaken for at least 1 h. The plate was counted in a Packard TopCounter microplate scintillation counter (PerkinElmer) for 3 min per well. […] Data presented is the pooled data of at least three independent experiments with three technical replicates if not stated otherwise in figure legends. Concentration–response curves were fitted by non-linear regression to the sigmoidal concentration-response model with GraphPad Prism (version 9.0.0, GraphPad Software, San Diego, CA, United States) as described ([Lie et al., 2020]).

BGT1 E52Y = target: T2, BGT1 E52Y (Homo sapiens, UniProt P48065, E52Y); details: for IC50: BGT1 E52Y, tsA201 cells
T2 construct: expressed in transfected cells; host or cells: tsA201 (transformed HEK293), transient
T2 sequence (P48065 1-614 E52Y): T1 sequence (P48065 1-614 E52A/Q299L) with A52Y, L299Q
Method: as §1, §2, §3

BGT1 E52A = target: T3, BGT1 E52A (Homo sapiens, UniProt P48065, E52A); details: for IC50: BGT1 E52A; for Increase in activity compared to wildtype: BGT1 E52A vs BGT1 wt
T3 construct: expressed in transfected cells; host or cells: tsA201 (transformed HEK293), transient
T3 sequence (P48065 1-614 E52A): T1 sequence (P48065 1-614 E52A/Q299L) with L299Q
Method: as §1, §2, §3

| IC50 (BGT1 E52A + Q299L; read-out: IC50) | Decrease in inhibitory activity compared to wildtype (BGT1 E52A + Q299L; BGT1 Q299L + E52A vs BGT1 wt) | Decrease in inhibitory activity compared to wildtype (BGT1 E52Y; BGT1 E52Y vs BGT1 wt) | IC50 (BGT1 E52Y) | IC50 (BGT1 E52A) | Increase in activity compared to wildtype (BGT1 E52A) | IC50 (BGT1 E52A; tsA201 cells) | IC50 (BGT1 E52A + Q299L; read-out: pIC50 ± S.E.M. (converted)) | Structure (SMILES) |
| --- | --- | --- | --- | --- | --- | --- | --- | --- |
| 41 µM | 27 times | 7 times | 11 µM | ~0.04 µM | 38 times | 0.04 µM | – | N[C@@]12CC[C@H](C(=O)O)[C@@H]1C2 [bicyclo-GABA, (1S,2S,5R)-5-aminobicyclo[3.1.0]hexane-2-carboxylic acid] |
| 44 µM | – | – | 20 µM | – | 82 times | 0.12 µM | 31.6 µM | CN[C@@]12CC[C@H](C(=O)O)[C@@H]1C2 [compound 2] |
